Experimental data from patent publication US12629352B2, “Methods and uses for apelin receptor agonists” (RESEARCH TRIANGLE INSTITUTE, priority 2019, dated 2026).

Tested on: bleomycin-induced pulmonary fibrosis in male C57BL/6 mice
Assay: 21-day bleomycin-induced lung fibrosis model, prophylactic BID oral treatment
Assay type: in vivo
Settings: for Ashcroft score index: FIG. 15A, BID treatment; for absolute lung weights / absolute lung weights vs vehicle: day 21 post-bleomycin; for absolute lung weights: ±SEM, significantly lower than vehicle (p<0.05)
Method: Bleomycin is widely used to induce pulmonary fibrosis in rodents in order to study potential novel therapies for fibrosis. This study was designed to evaluate the prophylactic efficacy of test compound, Compound 1, also referred to as SRRM-423, in a 21-day model of bleomycin-induced pulmonary fibrosis in male C57BL/6 mice.
Prophylactic treatment of three different doses of 30 mg/kg, 15 mg/kg, and 7.5 mg/kg of Compound 1 was commenced a day before induction of disease and continued until the end of the study, namely 21 days after bleomycin administration. Treatment was administered twice daily via oral gavage.
Mice were administered bleomycin (Catalog number C-61703-323-22, lot number D011495AA, Hospira) via oropharyngeal route to induce lung fibrosis.
Bleomycin-induced animals were treated twice daily with either of the three different doses of test compound Compound 1 or pirfenidone starting from a day prior to disease induction and continued till study termination. Study animals were harvested on day 21 post-bleomycin administration. As an end point analysis, fibrosis symptoms such as body weight, absolute lung weight, lung weight normalized to body weight, and total leukocytes in BAL fluid were evaluated and compared with vehicle-treated mice.
On day 0, all mice in groups 2-6 received a 1.5 U/kg oropharyngeal administration of bleomycin to induce pulmonary fibrosis. Animals in group 1 were not administered bleomycin, but instead received a single dose of normal saline via the oropharyngeal route, and were considered sham control mice.
Dosing was initiated one day prior to induction of disease. Animals were dosed twice daily orally with Compound 1 and Pirfenidone and treatment was continued until 21 days after bleomycin administration. Animals from group 2 were treated with vehicle (0.5% methylcellulose). Animals in groups 3, 4 and 5 received Compound 1 at 30, 15, and 7.5 mg/kg respectively, and animals in group 6 received Pirfenidone 100 mg/kg.
Surviving animals were euthanized 21 days post bleomycin administration. Animals were weighed, then blood and lungs were collected. Blood was processed for plasma. Lungs, were weighed, flushed with HBSS for BAL collection, and fixed in 10% NBF. Supernatant from BAL fluid was frozen while the pellet was used for total leukocyte cell count.
In order to induce pulmonary fibrosis, mice in groups 2-6 were administered 1.5 U/kg bleomycin (Catalog number C-61703-323-22, lot number D011495AA, Hospira) in 70 μl via oropharyngeal administration. Animals from group 1 were administered 70 μl of saline by the oropharyngeal route, instead of bleomycin, and served as sham controls.
Compound 1 was provided as a trifluoroacetic acid (TFA) salt and requires a salt correction of 1.0654. All dose amounts were calculated as the free base content of the test article using the correction factor. Vehicle used for formulation of test compound, Compound 1, was 0.3% Tween 80 and 1% N-methylpyrollidinone in 0.5% aqueous methylcellulose. Vehicle and dosing formulation of Compound 1 was prepared fresh weekly. Dosing formulations and vehicles were stored at 4±2° C. protected from heat and light. The expiration date for the test article dosing solutions were set at 7 days after preparation. Pirfenidone was sourced from a vendor and formulated in the same vehicle as Compound 1, i.e., 0.3% Tween 80 and 1% N-methylpyrollidinone in 0.5% aqueous methylcellulose.
Animals were dosed twice daily with volume of 100 μl/dose by oral gavage from a day prior to disease induction and same treatment was continued till study termination, i.e., day 21 post bleomycin administration. Surviving animals were harvested within 2 to 4 hours post final dosing on day 21.
The lungs from each animal were harvested following Aragen's Standard Operating Procedure (WA-004-01). Each lung was dissected from the animal and weighed. The BAL fluid was collected by lavaging the lung twice with 0.5 ml Hanks Balanced Salt Solution (HBSS, VWR Radnor, PA). […]

[1] = lung histopathology, dose not specified

SMILES	fibrosis according to Ashcroft scores (30 mg/kg BID, compared to induced controls and to 100 mg/kg Pirfenidone)	fibrosis according to Ashcroft scores (15 or 7.5 mg/kg BID, compared to induced controls, similar to 100 mg/kg Pirfenidone BID)	average total leukocyte count in BAL fluid (30, 15 and 7.5 mg/kg BID, day 21, vs vehicle group 2, statistical significance not reached)	α-SMA positive lung tissue as a percent of the total lung parenchyma (>7.5 mg/kg, FIG. 15B, compared to induced controls, no clear relationship to the dose)	Ashcroft score index [1]	Ashcroft score of lung section (Masson's trichome staining) (FIG. 16, 30 mg mpk + bleomycin, bleomycin/no treatment similar to score 5)	α-SMA positive staining of lung section (FIG. 17, 30 mpk + bleomycin, compared to induced controls)	absolute lung weights (group 3, 30 mg/kg BID oral gavage) [mg]	absolute lung weights vs vehicle (group 4, 15 mg/kg BID oral gavage)	body weight (group 4, 15 mg/kg BID, recorded three times a week to day 21)	absolute lung weights (group 5, 7.5 mg/kg BID oral gavage) [mg]	fibrosis symptoms (body weight, lung weight, lung weight index, total leukocyte counts, myofibroblast proliferation) (highest dose of 30 mg/kg BID)	proliferation of activated myofibroblasts (antibody to α-SMA) [1]	absolute and normalized lung weights (prophylactic BID treatment, doses not distinguished)	absolute lung weights vs vehicle (group 6, 100 mg/kg BID oral gavage)
O=C(O)C[C@H](CCN1CCCC(F)(F)C1)NC(=O)c1cc(-c2ccccc2C(F)(F)F)n(C2CCCC2)n1 [Compound 1, (3S)-3-({1-cyclopentyl-5-[2-(trifluoromethyl)phenyl]-1H-pyrazol-3-yl}formamido)-5-(3,3-difluoropiperidin-1-yl)pentanoic acid]	greatest reduction in fibrosis	substantially less fibrosis	reduced the average leukocyte count in BAL fluid in all test groups	substantially less α-SMA positive lung tissue	reduced Ashcroft score index	~2	substantially less compared to induced controls	310	Statistical significance was not reached	lost more weight compared to other groups	313	significantly ameliorated fibrosis symptoms	reduced proliferation of activated myofibroblasts	reduced absolute and normalized lung weights	–
Cc1ccc(=O)n(-c2ccccc2)c1 [Pirfenidone, reference compound]	–	–	–	–	reduced Ashcroft score index	–	–	–	–	–	–	–	–	–	Statistical significance was not reached
